Our source for the IC50 values is publication PMC8772930, “Experimental and Molecular Docking Studies of Cyclic Diphenyl Phosphonates as DNA Gyrase Inhibitors for Fluoroquinolone-Resistant Pathogens” (Antibiotics, 2022).

For the test, the target named is T1, DNA gyrase (Escherichia coli, UniProt P0AES6).
T1 construct: gene gyrB; with DNA gyrase subunit A (GyrA)
Nature of the test: DNA supercoiling inhibition assay (Inspiralis E. coli gyrase microplate kit, agarose gel). It counts as biochemical.

What is called IC50 is the concentration that inhibits the measured activity by half. A lower IC50 goes with greater potency in that assay. Consider `NN1C=CCCC1P(=O)(Oc1ccccc1)Oc1ccccc1` (stereo not shown) [2a, cyclic diphenylphosphonate 2a], for which inhibition was half-maximal at 12 µM (IC50).
